Experimental data taken from patent US20210137903A1, “ANTI-ANDROGENS FOR THE TREATMENT OF PROSTRATE CANCER” (priority 2019, published 2021).
Like-named read-outs stand apart in the source and are kept apart here.

Key:
[1] = Single 240-mg dose pharmacokinetics in healthy subjects (earlier studies); format: in vivo, human
From the text: Apalutamide is a Biopharmaceutics Classification System Class II drug (highly permeable and poorly soluble). The commercialized formulation is a spray dried powder of amorphous apalutamide.

CRPC = test: Phase II clinical trial, apalutamide 240 mg continuous daily dosing in CRPC; format: in vivo, human; conditions: for patients with 12-week PSA declines of >50% or more from baseline: 240 mg daily
From the text: The primary objective was to assess antitumor activity and PSA kinetics as defined by the Prostate Cancer Clinical Trials Working Group (PCWG2) criteria. […] The median time to PSA progression was not reached for the TN cohort during the preliminary 12-week period, and was 16 weeks in the PA cohort.
The median time to PSA progression was not reached in this observed time period.

high-risk nmCRPC = test: Phase 3 SPARTAN registration study, apalutamide 240 mg once daily vs placebo; format: in vivo, human
From the text: This study was a randomized, double-blind, placebo-controlled, multicenter trial that evaluated apalutamide treatment in patients with high-risk nmCRPC. […] All patients continued to receive ongoing androgen-deprivation therapy (GnRHa or surgical castration).

[2] = Safety in healthy subjects (previous single-dose studies); format: in vivo
From the text: Healthy subjects are commonly selected for PK studies as they allow for assessments in the absence of confounding factors such as comorbid conditions and concomitant medications. In this study, only male subjects were enrolled as the target patient population for clinical use of apalutamide consists of male subjects with CRPC.
The potential risks to subjects in this study included exposure to study drugs, with a potential for AEs. […] Subjects were monitored for AEs throughout the study, and an expert investigator was chosen to conduct the study. In each treatment period, subjects were confined to the study center until completion of the 72-hour PK assessments on Day 4 and returned to the study center for additional assessments up to Day 8 after intake of the study drug. Subject's safety was monitored at regular intervals throughout the study by physical examination, laboratory safety assessments, ECG and vital signs.

[3] = test system: non-castrate hormone-sensitive and bicalutamide-resistant human prostate cancer xenograft models; conditions: cited from earlier work

## CNC(=O)c1ccc(N2C(=S)N(c3cnc(C#N)c(C(F)(F)F)c3)C(=O)C23CCC3)cc1F [apalutamide, 4-[7-(6-cyano-5-trifluoromethylpyridin-3-yl)-8-oxo-6-thioxo-5,7-diazaspiro[3.4]oct-5-yl]-2-fluoro-N-methylbenzamide]
[1]; fed vs fasted
  Cmax lower with a high-fat meal compared to fasted: approximately 16%
  extent of absorption based on AUC∞ under fed conditions: remained unchanged
[1]; human, in vivo, oral, single dose 240 mg, read-out: absolute bioavailability
  bioavailability: ~100%
[1]; human, plasma, oral, 240 mg, N=15, read-out: mean single dose plasma Cmax
  Cmax: ~2.4 µg/mL
[1]; human, plasma, oral, 240 mg, human, read-out: half-life (converted)
  half-life: ~168 h
[1]; human, plasma, oral, 240 mg, read-out: mean Cmax from a similar study
  Cmax: 2.42 µg/mL
[1]; human, plasma, oral, 240 mg, read-out: mean elimination half-life (t1/2) (converted)
  half-life: ~162 h
[1]; human, plasma, oral, 240 mg, N=15, read-out: AUC0-168 h from another bioavailability study
  AUC(0-t): 121 µg·h/mL
[1]; human, plasma, oral, 240 mg, N=15, read-out: mean AUC28
  AUC: 225 µg·h/mL
[1]; human, plasma, oral, single 240-mg dose, tablet, healthy subjects, read-out: median Tmax
  Tmax: 2 to 3 h
[1]; single dose 240 mg
  Fabs: 1.11
CRPC; 240 mg continuous daily dosing
  tolerability: very well tolerated
CRPC; PA cohort
  median time to PSA progression: 16 weeks
CRPC; TN cohort, preliminary 12-week period
  median time to PSA progression: not reached
CRPC; TN patients with measurable disease at baseline
  objective response rate (by RECIST): 63%
CRPC; non-metastatic CRPC, 12 weeks
  patients with >50% decline in PSA as compared to baseline: 91%
CRPC; non-metastatic CRPC, 24 weeks
  patients with >50% decline in PSA: 91%
  patients with >90% decline in PSA: 55%
CRPC; non-metastatic CRPC, observed time period
  median time to PSA progression: not reached
CRPC; post-abiraterone (PA) metastatic CRPC cohort
  patients with 12-week PSA declines of >50% or more from baseline: 29%
CRPC; treatment-naive (TN) metastatic CRPC cohort
  patients with 12-week PSA declines of >50% or more from baseline: 88%
high-risk nmCRPC; 192 subjects
  subjects with documented PSA progression: 24%
high-risk nmCRPC; TEAE incidence
  arthralgia: 16%
  diarrhea: 20%
  fatigue: 30%
  hypertension: 25%
  nausea: 18%
  weight decreased: 16%
high-risk nmCRPC; TEAE incidence, all grades
  fall: 16%
  skin rash (grouped term): 24%
high-risk nmCRPC; all grades
  fracture: 12%
  hypothyroidism: 8.1%
  seizure: 0.2%
high-risk nmCRPC; in vivo
  Grade 3 skin rashes: 5.2%
  decrease of risk of PSA progression compared with placebo: 94%
  incidence of AEs of special interest: 42%
  longer median metastasis-free survival over placebo: 2 years
  lower limit of the 95% CI for the median time to PSA progression: 36.8 months
  median time to PSA progression: not estimable
  subjects who discontinued treatment due to TEAEs: 11%
  subjects with Grade 3-4 TEAEs: 45%
  subjects with serious adverse events (SAEs): 25%
  subjects with treatment-emergent adverse events: 97%
  total PSA response (confirmed and unconfirmed): 93%
high-risk nmCRPC; subjects in apalutamide arm
  confirmed prostate-specific antigen (PSA) response: 90%
high-risk nmCRPC; vs placebo, 95% CI: 0.052, 0.080
  HR for PSA progression: 0.064
[2]; healthy men, 240 mg
  testosterone and luteinizing hormone (LH): transient increase
[2]; healthy men, single dose 240 mg
  TSH: Reversible mild increases
[2]; human, in vivo
  tolerability of single doses up to 240 mg: well tolerated
[3]
  tumor regression: partial or complete tumor regression
